Experimental data as given in patent publication US9290476B2, “Methylene linked quinolinyl modulators of RORγt” (Janssen Pharmaceutica NV, priority 2012, dated 2016).
Counter-ions that a name gives are not always drawn. Like-named read-outs stand apart in the source and are kept apart here.

Tests used:
[1] = biological target: human RORγt ligand binding domain (RORγt LBD) (Homo sapiens (Human), UniProt P51449); assay: RORγt ThermoFluor assay (thermal shift binding affinity); conditions: estimated from thermal shift
Procedure, shortened: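 Thermal shift used 0.065 mg/mL RORγt LBD with 60 μM 1,8-ANS in 100 mM Hepes pH 7.0, 10 mM NaCl, 2.5 mM GSH and 0.002% Tween-20, heated at 1 °C/min. Fluorescence was excited at 380–400 nm and emission read at 500 nm.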

human RORγt LBD = human RORγt LBD (Homo sapiens (Human), UniProt P51449); assay: RORγt reporter assay (GAL4-RORγt LBD luciferase in HEK293T cells); format: cell-based; conditions: for IC50 / RORγt reporter Assay, % inhibition @ 6 μM: HEK293T cells; for IC50: 24 hours compound treatment; for inhibition at 6 µM: HEK-293T, read-out: RORγt reporter Assay, % inhibition @ 6 μM, HEK293T cells, 6 μM
Procedure, shortened: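 HEK293T cells transiently co-transfected with GAL4-DBD–wild-type human RORγt LBD (pBIND) and GAL4-responsive firefly luciferase reporter (pGL4.31); renilla luciferase from pBIND normalises transfection/viability. Cells in phenol-red-free DMEM, 5% lipid-reduced FCS, treated with compound 24 h. Firefly/renilla ratio plotted against compound concentration.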

[2] = test system: IL-17 production by CD4 T cells; assay: Human Th17 assay (IL-17 production by CD4 T cells under Th17 differentiation); format: cell-based; conditions: human CD4+ T cells, IL-17 after 3 days, read-out: Human Th17 Assay, IC50 μM
Procedure, shortened: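 Healthy-donor peripheral CD4+ T cells (1.5×10^5/well) preincubated 1 h with titrated compound (0.2% DMSO), then differentiated with anti-CD3/CD28 beads, anti-IL4, anti-IFNγ, IL1β, IL23, IL6, TGFβ and IL2 for 3 days at 37 °C. Supernatant IL-17 quantified by MSD electrochemiluminescence against a standard curve; IC50 fitted.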

Chain of human RORγt ligand binding domain (RORγt LBD) (P51449 other isoform, or with tags, fused parts or gaps): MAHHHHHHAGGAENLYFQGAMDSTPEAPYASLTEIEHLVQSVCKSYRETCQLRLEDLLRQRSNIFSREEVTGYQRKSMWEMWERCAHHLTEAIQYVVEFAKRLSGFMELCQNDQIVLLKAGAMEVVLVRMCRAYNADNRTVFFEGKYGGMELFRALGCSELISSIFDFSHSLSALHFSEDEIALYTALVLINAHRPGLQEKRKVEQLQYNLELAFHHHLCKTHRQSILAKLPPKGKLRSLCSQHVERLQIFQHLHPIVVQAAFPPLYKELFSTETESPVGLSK
Chain of human RORγt LBD (P51449 258-518): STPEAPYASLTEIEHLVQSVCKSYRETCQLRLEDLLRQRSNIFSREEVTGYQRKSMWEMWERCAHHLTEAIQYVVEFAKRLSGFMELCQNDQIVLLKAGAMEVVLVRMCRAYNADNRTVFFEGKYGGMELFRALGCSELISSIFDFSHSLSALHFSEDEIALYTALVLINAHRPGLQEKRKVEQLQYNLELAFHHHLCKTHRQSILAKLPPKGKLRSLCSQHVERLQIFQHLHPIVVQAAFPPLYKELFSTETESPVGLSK

SMILES | Kd [1] [nM] | IC50 (human RORγt LBD) [µM] | inhibition at 6 µM (human RORγt LBD) [%] | IC50 ([2]; Homo sapiens, CD4+ T, 72 h) [µM] | IC50 [2] [µM] | RORγt reporter Assay, % inhibition @ 6 μM (human RORγt LBD) [%]
COc1nc2ccc(C(O)(c3ccc(C(F)(F)F)nc3)c3cncn3C)cc2c(C#N)c1Cc1ccc(-n2cccn2)cc1 (single isomer, unassigned) [Example 73B, 3-(4-(1H-Pyrazol-1-yl)benzyl)-6-(hydroxy(1-methyl-1H-imidazol-5-yl)(6-(trifluoromethyl)pyridin-3-yl)methyl)-2-methoxyquinoline-4-carbonitrile] | 4.5 | 0.046 | 97 | – | 0.02 | –
COc1nc2ccc(C(O)(c3ccc(C#N)cc3)c3cncn3C)cc2c(C#N)c1Cc1ccc(C(F)(F)F)cc1 (single isomer, unassigned) [Example 96C, 6-((4-cyanophenyl)(hydroxy)(1-methyl-1H-imidazol-5-yl)methyl)-2-methoxy-3-(4-(trifluoromethyl)benzyl)quinoline-4-carbonitrile] | 2.2 | 0.018 | – | – | 0.0045 | 97
Cc1ccc(C(O)(c2ccc3nc(C#N)c(Cc4ccc(C(F)(F)F)cc4)c(C#N)c3c2)c2cnnn2C)c(C)n1 (single isomer, unassigned) [Example 88C, 6-((2,6-Dimethylpyridin-3-yl)(hydroxy)(1-methyl-1H-1,2,3-triazol-5-yl)methyl)-3-(4-(trifluoromethyl)benzyl)quinoline-2,4-dicarbonitrile] | 0.04 | 0.0088 | – | 0.0028 | – | 95
COc1nc2ccc(C(N)(c3ccc(C)nc3C)c3cnnn3C)cc2c(Cl)c1Cc1ccc(C(F)(F)F)cc1 (single isomer, unassigned) [Example 87C, (4-Chloro-2-methoxy-3-(4-(trifluoromethyl)benzyl)quinolin-6-yl)(2,6-dimethylpyridin-3-yl)(1-methyl-1H-1,2,3-triazol-5-yl)methanamine] | 1.3 | 0.012 | – | 0.0045 | – | 99
COc1nc2ccc(C(O)(c3sc(C)nc3C)c3cnnn3C)cc2c(Cl)c1Cc1ccc(C(F)(F)F)cc1 (single isomer, unassigned) [Example 79B, (4-Chloro-2-methoxy-3-(4-(trifluoromethyl)benzyl)quinolin-6-yl)(2,4-dimethylthiazol-5-yl)(1-methyl-1H-1,2,3-triazol-5-yl)methanol] | 57 | 0.038 | 99 | 0.052 | – | –
COc1nc2ccc(C(O)(c3cnnn3C)C3CN(C(C)=O)C3)cc2c(Cl)c1Cc1ccc(C(F)(F)F)cc1 (single isomer, unassigned) [Example 97C, 1-(3-((4-Chloro-2-methoxy-3-(4-(trifluoromethyl)benzyl)quinolin-6-yl)(hydroxy)(1-methyl-1H-1,2,3-triazol-5-yl)methyl)azetidin-1-yl)ethanone] | 0.64 | ~0.004 | – | – | 0.015 | 99
COc1nc2ccc(C(O)(c3ccc(C(F)(F)F)nc3)c3cncn3C)cc2c(Cl)c1Cc1cc2ccccc2s1 (single isomer, unassigned) [Example 37B, (3-(benzo[b]thiophen-2-ylmethyl)-4-chloro-2-methoxyquinolin-6-yl)(1-methyl-1H-imidazol-5-yl)(6-(trifluoromethyl)pyridin-3-yl)methanol] | 44 | 0.16 | 99 | 0.11 | – | –
COc1nc2ccc(C(O)(c3ccc(Cl)cc3)c3cncn3C)cc2c(Cl)c1Cc1cc2ccccc2s1 (single isomer, unassigned) [Example 36C, (3-(benzo[b]thiophen-2-ylmethyl)-4-chloro-2-methoxyquinolin-6-yl)(4-chlorophenyl)(1-methyl-1H-imidazol-5-yl)methanol] | 11 | 0.1 | – | 0.066 | – | 101
COc1nc2ccc(C(O)(c3ccc(C(F)(F)F)nc3)c3cncn3C)cc2c(Cl)c1Cc1ccc(C(F)(F)F)nc1 (single isomer, unassigned) [Example 94C, (4-Chloro-2-methoxy-3-((6-(trifluoromethyl)pyridin-3-yl)methyl)quinolin-6-yl)(1-methyl-1H-imidazol-5-yl)(6-(trifluoromethyl)pyridin-3-yl)methanol] | 6.5 | 0.16 | – | – | 0.048 | 95
CCc1nc2ccc(C(O)(c3cnnn3C)C3CN(C(C)=O)C3)cc2c(Cl)c1Cc1ccc(C(F)(F)F)cc1 (single isomer, unassigned) [Example 90C, 1-(3-((4-Chloro-2-ethyl-3-(4-(trifluoromethyl)benzyl)quinolin-6-yl)(hydroxy)(1-methyl-1H-1,2,3-triazol-5-yl)methyl)azetidin-1-yl)ethanone] | 0.32 | 0.0054 | – | – | 0.0061 | 98
Cc1cc(C(O)(c2ccc(C#N)cc2)c2cncn2C)cc2c(C#N)c(Cc3ccc(-n4cccn4)cc3)c(C#N)nc12 (single isomer, unassigned) [Example 66B, 3-(4-(1H-pyrazol-1-yl)benzyl)-6-((4-cyanophenyl)(hydroxy)(1-methyl-1H-imidazol-5-yl)methyl)-8-methylquinoline-2,4-dicarbonitrile] | 270 | 0.42 | 95 | – | 1.1 | –

Continued, values first:

Kd [1] [nM] | IC50 (human RORγt LBD) [µM] | inhibition at 6 µM (human RORγt LBD) [%] | IC50 ([2]; Homo sapiens, CD4+ T, 72 h) [µM] | IC50 [2] [µM] | RORγt reporter Assay, % inhibition @ 6 μM (human RORγt LBD) [%] | SMILES
4 | 0.014 | 95 | 0.15 | – | – | Cn1cncc1C(O)(c1ccc(C(F)(F)F)nc1)c1ccc2nc(Cl)c(Cc3ccc(-n4cccn4)cc3)c(Cl)c2c1 (stereo not shown) [Example 23, (3-(4-(1H-Pyrazol-1-yl)benzyl)-2,4-dichloroquinolin-6-yl)(1-methyl-1H-imidazol-5-yl)(6-(trifluoromethyl)pyridin-3-yl)methanol.TFA]
57 | 0.12 | – | – | 0.1 | 101 | CON(C)c1nc2ccc(C(O)(c3ccc(C(F)(F)F)nc3)c3cncn3C)cc2c(Cl)c1Cc1ccc(-n2cccn2)cc1 (single isomer, unassigned) [Example 67C, (3-(4-(1H-pyrazol-1-yl)benzyl)-4-chloro-2-(methoxy(methyl)amino)quinolin-6-yl)(1-methyl-1H-imidazol-5-yl)(6-(trifluoromethyl)pyridin-3-yl)methanol]
2.2 | 0.025 | 98 | 0.063 | – | – | Cn1cncc1C(O)(c1ccc2nc(Cl)c(Cc3ccc(-n4cccn4)cc3)c(Cl)c2c1)c1cncn1C [Example 30, (3-(4-(1H-Pyrazol-1-yl)benzyl)-2,4-dichloroquinolin-6-yl)bis(1-methyl-1H-imidazol-5-yl)methanol.TFA]
6.6 | 0.038 | 104 | 0.054 | – | – | CCOc1nc2ccc(C(O)(c3cncs3)c3cncn3C)cc2c(Cl)c1Cc1ccc(-n2cccn2)cc1 (stereo not shown) [Example 16, (3-(4-(1H-Pyrazol-1-yl)benzyl)-4-chloro-2-ethoxyquinolin-6-yl)(1-methyl-1H-imidazol-5-yl)(thiazol-5-yl)methanol.TFA]
30 | 0.21 | – | – | 0.2 | 100 | Cn1cncc1C(O)(c1ccc(C(F)(F)F)nc1)c1ccc2nc(N3CCC3)c(Cc3ccc(-n4cccn4)cc3)c(Cl)c2c1 (single isomer, unassigned) [Example 68C, (3-(4-(1H-pyrazol-1-yl)benzyl)-2-(azetidin-1-yl)-4-chloroquinolin-6-yl)(1-methyl-1H-imidazol-5-yl)(6-(trifluoromethyl)pyridin-3-yl)methanol]
2.1 | ~0.05 | 96 | – | 0.01 | – | Cn1cncc1C(O)(c1ccc(C(F)(F)F)nc1)c1ccc2nc(N3CCC3)c(Cc3ccc(-n4cccn4)cc3)c(Cl)c2c1 (single isomer, unassigned) [Example 68B, (3-(4-(1H-pyrazol-1-yl)benzyl)-2-(azetidin-1-yl)-4-chloroquinolin-6-yl)(1-methyl-1H-imidazol-5-yl)(6-(trifluoromethyl)pyridin-3-yl)methanol]
140 | 0.17 | 102 | 0.18 | – | – | COc1ccc(C(O)(c2cccnc2)c2ccc3nc(Cl)c(Cc4ccc(-n5cccn5)cc4)c(Cl)c3c2)cc1 (stereo not shown) [Example 47, (3-(4-(1H-Pyrazol-1-yl)benzyl)-2,4-dichloroquinolin-6-yl)(4-methoxyphenyl)(pyridin-3-yl)methanol]
310 | 0.38 | 96 | 1.2 | – | – | CCN(C)c1nc2ccc(C(O)(c3ccc(Cl)cc3)c3cncn3C)cc2c(Cl)c1Cc1ccc(-n2cccn2)cc1 (stereo not shown) [Example 17, (3-(4-(1H-Pyrazol-1-yl)benzyl)-4-chloro-2-(ethyl(methyl)amino)quinolin-6-yl)(4-chlorophenyl)(1-methyl-1H-imidazol-5-yl)methanol.TFA]
